{"source": "patent US7915220B2", "about": "“Peptidomimetic agents from dextrorotatory amino acids as well as pharmaceutical agents that contain the latter for treatment of neurodegenerative diseases” (JSW-Research Forschungslabor GmbH, priority 2006, dated 2011)", "key": {"[1]": {"experiment": "Stability of peptides incubated with rat brain homogenate (RP-HPLC / LC-MS)", "type": "in vitro ADME", "settings": "for remaining at 0.25 h, 0.2 mM / remaining at 1 h, 0.2 mM / remaining at 3 h, 0.2 mM / remaining at 24 h, 0.2 mM: pH 7.6, 37° C.; for remaining at 0.25 h, 0.2 mM: 15 minutes, read-out: portion of the amount of sample used left after 15 Minutes; for remaining at 1 h, 0.2 mM: read-out: portion of the amount of sample used left after 1 Hour; for remaining at 3 h, 0.2 mM: read-out: portion of the amount of sample used left after 3 Hours; for remaining at 24 h, 0.2 mM: read-out: portion of the amount of sample used left after 24 Hours; for half-life at 0.2 mM: tris buffer pH 7.6, 37° C.", "experimental": "An essential advantage of the peptidomimetic agents according to the invention, which consist of D-amino acids as well as glycine, is the higher stability compared to the degradation by various enzymes that occur in the body—in particular peptidases. For this reason, the stability of the nuclear sequence mimetic agent vGek was compared to that of the corresponding retroinverse peptide KEGV according to WO 03/082906 A, whereby the peptides together with a rat brain homogenate were incubated for 15 minutes as well as for 1, 3 and 24 hours.\nTo this end, freshly isolated rat brain was homogenized in tris buffer (pH 7.6) and used immediately. In each case, a portion of a 1 mmol peptide solution and four parts of the homogenate were incubated at 37° C. After the incubation, the decomposition of the enzymes was halted by adding 50 μl of 0.1 M HCl. Then, a denaturation of the proteins was carried out with methanol (volume ratio: 1:4) at −20° C. for 60 minutes. Then, it was centrifuged for 20 minutes at 4° C. and 29,000 g.\nFinally, the samples were concentrated under vacuum and analyzed by means of RP-HPLC (liquid chromatography, with UV/vis detector, detection wavelength: 220 nm; solvent: (A) 0.1% TFA/water (A), 0.1% TFA in 80% ACN/water (B); column: Phenomenex Jupiter C18 (250×4 mm, 5 μm of 300 Å), flow rate: 1.2 ml/minute, gradients: 0 to 15% B after 30 minutes (KEGVOH), 0% isocratic B for 10 minutes, then at 0 to 15% B after 30 minutes (KEGVNH2), 0 to 15% B after 20 minutes (vGekNH2)).\nAs an alternative, LC-MS (Applied Biosystems 140C Microgradient System; solvent: 0.1% HCOOH/water (A), 0.1% HCOOH in 80% acetonitrile/water (B); column: Alltech Hypersil C18 (150×2.1 mm, 5 μm of 100 Å), flow rate: 0.15 ml/minute, gradient: 0 to 15% B after 20 minutes; detector: Finnigan TSQ-7000 Triple Quadrupole Mass Spectrometer, m/z Range; 10-1000, scan time: 1.0 second) was also used."}, "[2]": {"experiment": "Blood-brain barrier passage of tritiated vGek in rats (radioactivity in organs)", "type": "in vivo", "experimental": "The test was performed as follows:\nRats were injected with […] of tritiated vGek (vGek of specific activity: 34.0 Ci/mmol). 10, 30 and 60 minutes after the injection, the animals were anesthetized, and blood as well as a few organs were removed for examination and weighed. Depending on the organ, 50-250 mg of tissue was removed in a solvent and incubated at 60° C. for 2 hours. After cooling to room temperature, 200 μl of 30% H2O2 was added. Then, another incubation at 60° C. was carried out for 30 minutes. Finally, the radioactivity was determined with the aid of a scintillation measuring device."}, "SHSY-5Y cells": {"test_system": "SHSY-5Y cells", "experiment": "MTT test, injury of differentiated SHSY-5Y cells with pre-aggregated Aβ-1-42", "type": "cell-based", "experimental": "To examine the action of the peptidomimetic agent according to the invention in a relevant biological system, injury tests were performed in cell cultures with Aβ-1-42 (β-amyloid). Differentiated SHSY-5Y cells were used as cell culture systems.\nThe cells that were still not differentiated were cultivated in 96-well plates at 37° C. in an atmosphere in DMEM/F12 (Cambrex) that contains 5% CO2 until confluence is completed. For differentiation, the following medium composition was selected: 10 μmol of All-Trans-retinoic acid, 10% FBS, 4 mmol of L-glutamine, 200 units/ml of penicillin, 200 μg/ml of streptomycin, 0.5% DMSO in MEM non-essential amino acids (e.g., Cambrex). After 8 days in the differentiation medium, 3×10^5 cells/cm^2 in the form of a monolayer were present.\nBefore the application, the test substances were irradiated for 10 minutes in a form already dissolved in culture medium. This medium contained 2% FBS (fetal bovine serum) and was free of phenol red, retinoic acid and DMSO.\nAβ-1-42 was pre-aggregated before the addition for 24 hours at room temperature while being shaken lightly. […]\nThen, the medium was carefully emptied, and the formazan crystals that were produced were dissolved with a DMSO/ethanol solution (4:1). Finally, the color intensity obtained was measured at 550 nm in an ELISA reader. […]"}}, "note": "Where a SMILES comes first, the peptide text is derived from it. [ ]: non-standard residue; d: D form.", "data": [{"compound": "CC(C)[C@H](NC(=O)CNC(=O)[C@H](CCC(=O)O)NC(=O)[C@@H](N)CCCCN)C(N)=O", "note": "[KEGVNH2] (H-KEGV-NH2; N-terminus assumed)", "values": [{"measurement": "remaining at 0.25 h, 0.2 mM", "setting": "[1]", "value": 22, "unit": "%"}, {"measurement": "remaining at 1 h, 0.2 mM", "setting": "[1]", "value": 0, "unit": "%"}, {"measurement": "remaining at 3 h, 0.2 mM", "setting": "[1]", "value": 0, "unit": "%"}, {"measurement": "remaining at 24 h, 0.2 mM", "setting": "[1]; 24 hours", "value": 0, "unit": "%"}, {"measurement": "half-life at 0.2 mM", "setting": "[1]", "value": "< 0.25", "unit": "h"}]}, {"compound": "CC(C)[C@H](NC(=O)CNC(=O)[C@H](CCC(=O)O)NC(=O)[C@@H](N)CCCCN)C(=O)O", "note": "[KEGVOH] (H-KEGV-OH; N-terminus assumed)", "values": [{"measurement": "remaining at 0.25 h, 0.2 mM", "setting": "[1]", "value": 14, "unit": "%"}, {"measurement": "remaining at 1 h, 0.2 mM", "setting": "[1]", "value": 0, "unit": "%"}, {"measurement": "remaining at 3 h, 0.2 mM", "setting": "[1]", "value": 0, "unit": "%"}, {"measurement": "remaining at 24 h, 0.2 mM", "setting": "[1]; 24 hours", "value": 0, "unit": "%"}, {"measurement": "half-life at 0.2 mM", "setting": "[1]", "value": "< 0.25", "unit": "h"}]}, {"compound": "CC(C)[C@@H](N)C(=O)NCC(=O)N[C@H](CCC(=O)O)C(=O)N[C@H](CCCCN)C(=O)O", "note": "[vGek, Dval-gly-Dglu-Dlys] (H-[dV]G[dE][dK]-OH; N-terminus and C-terminus assumed)", "values": [{"measurement": "highest measured value in the brain", "setting": "[2]; injection of 2.94 mmol tritiated vGek", "value": 1.33, "unit": "pmol"}, {"measurement": "passage through the blood-brain barrier", "setting": "[2]; tritiated vGek", "value": "could overcome the blood-brain barrier"}, {"measurement": "stability above that of the corresponding peptide KEGV", "setting": "[1]; in vitro", "value": "2-3 orders of magnitude"}, {"measurement": "influence on the survival of cells (toxicity of the peptide alone)", "setting": "SHSY-5Y cells; 50 μmol vGek alone", "value": "no detectable influence on the survival of cells"}]}, {"compound": "CC(C)[C@@H](N)C(=O)NCC(=O)N[C@H](CCC(=O)O)C(=O)N[C@H](CCCCN)C(N)=O", "note": "[vGekNH2] (H-[dV]G[dE][dK]-NH2; N-terminus assumed)", "values": [{"measurement": "detectability of peptide after 24 hours", "setting": "[1]; 37° C., 24 hours", "value": "can be detected"}, {"measurement": "remaining at 3 h, 0.2 mM", "setting": "[1]", "value": 70, "unit": "%"}, {"measurement": "remaining at 24 h, 0.2 mM", "setting": "[1]; 24 hours", "value": 50, "unit": "%"}, {"measurement": "half-life at 0.2 mM", "setting": "[1]", "value": "20 to 24", "unit": "h"}]}, {"compound": "Aβ-1-42: amyloidogenic β-amyloid peptide with 42 amino acids, used pre-aggregated to damage cells", "values": [{"measurement": "survival rate of SHSY-5Y cells", "setting": "SHSY-5Y cells; 10 μmol of pre-aggregated Aβ-1-42 alone", "value": 56, "unit": "%"}]}]}
